The values below come from US12447213B2, “Modulation of novel immune checkpoint targets” (The Brigham and Women's Hospital, Inc., priority 2016, dated 2025).

One test deals with Factor VII. The following applies: LNP siRNA systems containing these lipids; cited from earlier work.
Test [1] has as its system Th17 cells. Put plainly: Th17 differentiation in the presence of plate bound integrin αvβ3, cytokine production by FACS. The note with it: 10 ug/ml, BSA as control. Format: cell-based, mice. On the procedure:
FIG. 40. […] Anti-CD3/CD28 beads are used at a ratio of 1:1. Naïve T cells were differentiated into pathogenic or non-pathogenic Th17 cells in vitro with anti-CD3/CD28 Dynabeads (Thermo Fisher Scientific) in the presence of plate bound integrin avb3 (10 ug/ml) or BSA (10 ug/ml) as control. Cytokine production from Th17 cells were measured by FACS on day 4.
Role of Gp49 Ligand Integrin αvβ3. Integrin αvβ3 is a known ligand of ILT-3 that induces human mast cell degranulation in a Gp49b dependent way. To determine the expression pattern of integrin αvβ3, FACs analysis was performed on various immune cell subsets. CD4^+CD44^loCD62L^hi naïve CD4 T cells were sorted by FACS and cultured in vitro with plate-bound anti-CD3 (2 ug/ml) and anti-CD28 (2 ug/ml) plus the following polarizing cytokines: IL12 (20 ng/ml) for Th1 cells; IL4 (20 ng/ml) for Th2 cells; TGFb (5 ng/ml) for iTreg cells; IL27 (25 ng/ml) for Tr1 cells; TGFb (2 ng/ml) and IL6 (25 ng/ml) for non-pathogenic Th17; IL1 (20 ng/ml), IL6 (25 ng/ml) and IL23 (20 ng/ml) for pathogenic Th17. Expression of αv and β3 integrin were analyzed by FACS and qPCR on day 4. […] Stained cells were analyzed by FACS. […] Stained cells were analyzed by FACS. […] Next, the effect of plate-bound integrin was determined. […] Cytokine production from Th17 cells was measured by FACS on day 4.
Background: In flow cytometry, cells or beads pass a laser one at a time.

The test system of test [2] is Th17 cells. In words: Binding of recombinant His-tagged integrin αvβ3 to Th17 cells (FACS). Set-up: species or system mice. The following applies: pathogenic and non-pathogenic Th17. How it is done: FIG. 38. Integrin avb3 doesn't bind to Th17 cells (in Hank's balanced salt solution ((HBSS)) in the presence of Ca2+ and Mg2+. In vitro differentiated pathogenic and non-pathogenic Th17 cells were incubated with recombinant His-tagged integrin avb3 in HBSS buffer at room temperature for 30 min, washed twice, and then incubated with anti-His antibody for 10 min. Stained cells were analyzed by FACS.
FIG. 39. Integrin avb3 doesn't bind to Th17 cells (in phosphate buffered saline ((PBS)) in the absence of Ca2+ and Mg2+. In vitro differentiated pathogenic and non-pathogenic Th17 cells were incubated with recombinant His-tagged integrin αvβ3 in PBS buffer at room temperature for 30 min, washed twice, and then incubated with anti-His antibody for 10 min. Stained cells were analyzed by FACS.
Role of Gp49 Ligand Integrin αvβ3. Integrin αvβ3 is a known ligand of ILT-3 that induces human mast cell degranulation in a Gp49b dependent way. To determine the expression pattern of integrin αvβ3, FACs analysis was performed on various immune cell subsets. […] Expression of αv and β3 integrin were analyzed by FACS and qPCR on day 4. […] Stained cells were analyzed by FACS. […] Stained cells were analyzed by FACS. […] Next, the effect of plate-bound integrin was determined. […] Cytokine production from Th17 cells was measured by FACS on day 4.

The next test concerns naïve CD4 T cells. Put plainly: Gp49 expression on naïve CD4 T cells cultured with polarizing cytokines (FACS day 3). Format: cell-based, mice. The following applies: plate-bound anti-CD3/anti-CD28 plus polarizing cytokines.
In test [3] the test system is naïve CD4+ and CD8+ T cells. In words: In vitro T-cell differentiation with IL-27: co-inhibitory receptor expression by real-time PCR and flow cytometry. Format: cell-based, mice. The source says: FIG. 1A-1M. illustrates that IL-27 induces multiple co-inhibitory receptors on CD4^+ and CD8^+ T cells. CD4^+ and CD8^+ tumor-infiltrating lymphocytes (TILs) harvested from wild type (WT) mice bearing B16F10 melanoma tumors. FIG. 1A) Naïve T cells from either WT or IL-27ra deficient mice (IL27ra KO) were stimulated with anti-CD3/CD28 in the presence or absence of IL-27 as indicated. Expression of the indicated co-inhibitory molecules was examined by real-time PCR at 96 hr (CD4) and 72 hr (CD8), n≥3, error bars indicate s.e.m. FIG. 1B) Surface expression of co-inhibitory receptors on T cells stimulated as in (A) was determined by flow cytometry. Representative data are shown. FIG. 1C) Co-expression analysis of co-inhibitory and co-stimulatory receptor mRNA expression as determined by single cell RNAseq (316 and 516 for CD4^+ and CD8^+ respectively). For visualization purposes negative correlation values were set to zero. FIG. 1D) Protein expression by CyTOF for 23,656 CD4^+ and 36,486 CD8^+ TILs. Co-expression was analyzed using Spearman correlation. For visualization purposes negative correlation values were set to zero. FIG. 1E) TILs were harvested from WT and IL27ra KO mice bearing B16F10 melanoma and analyzed using CyTOF. CyTOF data were analyzed using vi-SNE. Polygons indicating clusters 1, 2 (in CD8^+ T cells), 3 and 4 (in CD4^+ T cells) are shown. FIG. 1F) The within groups sum of squared error (SSE) plot. […] FIG. 1G) Gap statistics for estimating the optimal number of clusters using k-means from 1 up to 12 clusters using bootstrapping and first SE max method. […] Visualization of cluster distribution using two-dimensional non-linear embedding of the protein expression profiles by t-SNE. FIG. 1I) CyTOF expression analysis of co-inhibitory and co-stimulatory receptors in TILs harvested from B16F10 melanoma tumor-bearing WT and […] mice from FIG. 1A and FIG. 1J using t-SNE. FIG. 1J) vi-SNE plot highlighting the distribution of CD8^+ TILs from WT (red) and IL27ra KO (blue) mice in clusters 1 and 2 and CD4^+ TILs from WT (red) and IL27ra KO (blue) mice in clusters 3 and 4. Pie charts show the distribution of WT or IL27ra KO CD8^+ and CD4^+ TILs in each cluster. Bar graphs show the mean of signal intensity for PD-1, Tim-3, Lag-3, and TIGIT from WT and IL27ra KO TILs. Error bars are the standard error and p-values for significance are calculated using standard t-test (**p<0.01). FIG. 1K) Expression of PD-1, Tim-3, Lag-3, TIGIT, and IL-10 on CD8^+ TILs obtained from WT and IL27ra KO mice bearing B16F10 melanoma was determined by flow cytometry. Thy1.1-IL-10 reporter mice crossed with WT and IL27ra KO mice were used for IL-10 expression analysis. FIG. 1L, FIG. 1M) Impact of IL-27 signaling on co-inhibitory receptor expression in TILs. Pie charts show the distribution of CD8^+ and CD4^+ TILs from WT and IL27ra KO mice bearing B16F10 melanoma between clusters 1 and 2 for CD8^+ and between clusters 3 and 4 for CD4^+ TILs as determined by k-means clustering of CyTOF protein expression data.
Flow cytometry: Single cell suspensions were stained with antibodies against CD4 (RM4-5), CD8 (53-6.7), PD-1 (RMP1-30), Lag-3 (C9B7W), TIGIT (GIGD7), and Tim-3 (5D12), Procr (eBio1560), and Pdpn (8.1.1) and were obtained from BioLegend (San Diego, Calif.). Fixable viability dye eF506 (eBioscience) was used to exclude dead cells. For intra-cytoplasmic cytokine staining, cells were stimulated with (PMA) (50 ng/ml, Sigma-Aldrich, MO), ionomycin (1 μg/ml, Sigma-Aldrich, MO). Permeabilized cells were then stained with antibodies against IL-2, TNF-α, IFN-γ or IL-10. All data were collected on a BD LSR II (BD Biosciences) and analyzed with FlowJo software (Tree Star).
In vitro T-cell differentiation: CD4^+ and CD8^+ T cells were purified from spleen and lymph nodes using anti-CD4 microbeads (Miltenyi Biotech) then stained in PBS with 0.5% BSA for 15 min on ice with anti-CD4, anti-CD8, anti-CD62L, and anti-CD44 antibodies (all from Biolegend, CA). […]
In general terms: Quantitative PCR measures a nucleic acid by following its amplification.

Where [4] appears, read: activation of naïve CD4+ and CD8+ T cells in vitro in the presence of IL-27.
[5] abbreviates: anti-CD3/CD28 in the presence of IL-27, CD4+ and CD8+ T cells.

For the molecule “1,2-dilinoleyloxy-keto-N,N-dimethyl-3-aminopropane [DLinKDMA]”, the “gene silencing potency series” value with Factor VII is on record as “DLinKC2-DMA>DLinKDMA>DLinDMA>>DLinDAP”.
In the case of `CCCCC/C=C\C/C=C\CCCCCCCC(=O)OCC(CN(C)C)OC(=O)CCCCCCC/C=C\C/C=C\CCCCC` (centres unmarked) [DLinDAP, 1,2-dilineoyl-3-dimethylammonium-propane], in the test on Factor VII, the “gene silencing potency series” value is reported as “DLinKC2-DMA>DLinKDMA>DLinDMA>>DLinDAP”.
In the case of `CCCCC/C=C\C/C=C\CCCCCCCCOCC(CN(C)C)OCCCCCCCC/C=C\C/C=C\CCCCC` (centres unmarked) [DLinDMA, 1,2-dilinoleyloxy-3-N,N-dimethylaminopropane], the “gene silencing potency series” value in the test on Factor VII is reported as “DLinKC2-DMA>DLinKDMA>DLinDMA>>DLinDAP”.
In the case of `CCCCC/C=C\C/C=C\CCCCCCCCC1(CCCCCCCC/C=C\C/C=C\CCCCC)OCC(CCN(C)C)O1` (centres unmarked) [DLinKC2-DMA, 1,2-dilinoleyl-4-(2-dimethylaminoethyl)-[1,3]-dioxolane], in the test on Factor VII, the “gene silencing potency series” value was “DLinKC2-DMA>DLinKDMA>DLinDMA>>DLinDAP”.
For “Integrin αvβ3: recombinant His-tagged integrin αvβ3, a known ligand of ILT-3”, in the test with Th17 cells [1], the “effect on Th17 cells (cytokine production, FACS day 4)” value was “does not appear to have much effect”. Further, the “binding to Th17 cells” value in the test with Th17 cells [2] (HBSS, in the presence of Ca2+ and Mg2+) is listed as “doesn't bind”; in the test on Th17 cells [2] (PBS, in the absence of Ca2+ and Mg2+), “doesn't bind”.
Turning to TGFb, the Gp49 expression entry with naïve CD4 T cells is given as “inhibited”.

B1: IL-27: heterodimeric cytokine, member of the IL-12 family; rmIL-27 (25 ng/ml) (eBioscience) used in vitro (protein)
chain 1: FPTDPLSLQELRREFTVSLYLARKLLSEVQGYVHSFAESRLPGVNLDLLPLGYHLPNVSLTFQAWHHLSDSERLCFLATTLRPFPAMLGGLGTQGTWTSSEREQLWAMRLDLRDLHRHLRFQVLAAGFKCSKEEEDKEEEEEEEEEEKKLPLGALGGPNQVSSQVSWPQLLYTYQLLHSLELVLSRAVRDLLLLSLPRRPGSAWDS
chain 2: YTETALVALSQPRVQCHASRYPVAVDCSWTPLQAPNSTRSTSFIATYRLGVATQQQSQPCLQRSPQASRCTIPDVHLFSTVPYMLNVTAVHPGGASSSLLAFVAERIIKPDPPEGVRLRTAGQRLQVLWHPPASWPFPDIFSLKYRLRYRRRGASHFRQVGPIEATTFTLRNSKPHAKYCIQVSAQDLTDYGKPSDWSLPGQVESAPHKP
On to B1, for which, in test [3] (setting [4]), the “Pdpn expression by qPCR and flow cytometry” value was “induced”; the “Procr expression by qPCR and flow cytometry” value is reported as “induced”. Besides, in test [3] (setting [5]), the “Lag-3 expression, mRNA and protein level” value is on record as “induced”; the “TIGIT expression, mRNA and protein level” value is reported as “induced”; the “Tim-3 (Havcr2) expression, mRNA and protein level” value was “induced”. Also, the “PD-1 (Pdcd1) expression” value in test [3] (in vitro, anti-CD3/CD28 in the presence of IL-27) is given as “not affected”.
